Patent publication US20030175678A1, “Methods for identifying genes regulating desired cell phenotypes” (priority 2001, published 2003)

Legend:
Type in all cases: cell-based
[1] = system: C. barkleyi suspension culture; test: Differential induction of catechin accumulation in Crassula barkleyi suspension culture; settings: B49 medium, treated seven days after inoculation, sampled for 17 days
Experimental: Differential induction of catechin derivatives in the C. barkleyi suspension culture was performed in 250 mL conical flasks containing 100 mL of a secondary metabolite production medium B49 (Gamborg's B5, with 5% sucrose, and no hormones), inoculated with 16 mL of 14 day old suspension culture. The cultures were incubated under low light conditions (approximately 30 lux) at 25° C. for seven days after inoculation. Cultures were then treated using one of each of the following protocols (untreated cultures were also maintained as controls):
(2) Autoclaved aqueous 2,4-D (1 mg/L final concentration) was added;
(4) Filter-sterilized aqueous DL-phenylalanine (200 mg/L) was added;
(6) Filter-sterilized aqueous zeatin (10 μM) was added;
(7) Filter-sterilized aqueous 1-aminocyclopropane-1-carboxylic acid (10 mg/L final concentration) was added;
(8) Filter-sterilized 24-epibrassinolide (1 mg/L final concentration) was added;
(9) Incubation at a temperature of 16° C.; or (10) High light regime (approximately 160 lux).
(§1) Ten milliliter culture samples were taken at regular intervals for 17 days following the day of subculture to B49 medium. All culture samples were centrifuged for five minutes at 4000 rpm, and the cell residue was freeze-dried. Extraction, sample preparation, and HPLC analysis were performed as described in Example 1.

[2] = system: C. fascicularis suspension culture; test: Differential induction of EGCG in Crassula fascicularis suspension culture (HPLC); settings: B49 medium, treated on day 7 following subculture
Experimental: Differential induction of catechins in the C. fascicularis suspension culture was performed in 500 mL conical flasks containing 190 mL of either growth medium B105 (modified Gamborg's B5 medium containing 2,4-D (1 mg/L), kinetin (0.1 mg/L), coconut water (100 mL/L), glutamine (10 mM), and 3% sucrose) or a secondary metabolite production medium B49 (Gamborg's B5, 5% sucrose, no hormones), inoculated with 70 mL of 14 day old suspension culture. Cultures were grown for 14 days before harvest and processing. Further cultures grown on production medium B49 were treated using one of each of the following protocols:
(4) A 40 mL aliquot of a day 0 suspension growing on B105 medium was transferred to a 100 mL flask. On day 3, a sterile solution of 5-azacytidine (5-AC) in water was added for a final concentration of 3×10^−5 M, and the resultant mixture was incubated for 11 days. At this point the 40 mL 5-AC-treated culture was subcultured twice before inoculating 190 mL B49 production medium in a 500 mL flask with 70 mL of day 14 suspension. The culture was then treated further according to protocol (2). […]
Lyophilized biomass from 100 mL plant cell culture was extracted three times with 10 mL of boiling aqueous 0.2 M NaH2PO4 solution (total 30 mL). The combined, cooled, extracts were extracted with EtOAc (2×30 mL). The combined EtOAc extracts were then dried under a stream of nitrogen. The samples were dissolved in 50% aqueous acetonitrile at a concentration of 1.0 mg/mL; a 0.1 mL aliquot was transferred into a 0.25 mL glass insert to a 2 mL HPLC vial. The extraction procedure is scalable according to the initial volume of the plant-cell culture used to generate the biomass.
HPLC analyses of compounds in plant cell culture extracts were performed in two systems. System 1 (S1) utilized a Rainin Dynamax SD-200 pumping system, a Varian Dynamax PDA-2 diode array detector, with a Waters XTerra RP 18 (5 μm, 3.0×150 mm) column. The mobile phase was composed from 0.1% acetic acid in H2O (solvent A) and 0.1% acetic acid in acetonitrile (solvent B), at a flow rate of 0.75 mL/min: after maintaining initial conditions (A:B, 95:5) for one minute post-injection, gradient elution was accomplished in a linear fashion over 30 min (to A:B, 40:60). A total of 10 μL of each sample was injected onto the column and eluates were analyzed at a wavelength of 275 nm. System 2 (S2) utilized API-electrospray-LC-MS: a Hewlett Packard series HP1100 with a Waters Xterra RP18 (3.5 μm, 2.1×100 mm) column was used as the inlet for a Micromass Platform-LC, in the positive-ion mode. […] Compounds of interest were detected at 254 nm and as single-charged species via selected-ion monitoring in the mass spectrometer. […]

[3] = system: C. dejecta suspension culture; test: Differential induction of catechin accumulation in Crassula dejecta suspension culture; settings: cultures grown on B105, added at day 7
Experimental: Differential induction of catechin derivatives in the C. dejecta suspension culture was performed in 250 mL conical flasks containing 100 mL of B105 growth medium or 100 mL of a secondary metabolite production medium B49 (Gamborg's B5, with 5% sucrose, and no hormones), inoculated with 40 mL of 21 day old suspension culture. The cultures were incubated under low light conditions (approximately 30 lux) at 25° C. Cultures were treated using one of each of the following protocols:
(1) B105 growth medium (no additions) used as is;
(3) Filter-sterilized aqueous zeatin (10 μM) was added at day 7 to a culture grown on B105 medium;
(4) B49 production medium (no additions) used as is;
as §1, with “(6) Filter-sterilized clofibrate (0.5 mM final concentration) was added at day 7 to a culture grown on B49 medium. Ten” for “Ten”, “milliliters of” for “milliliter”, “to B105 or” for “to”

| Structure (SMILES) | catechin biosynthesis and EGCG accumulation [1] | EGCG (mg/gdwt) two days after treatment [2] | induction of catechin, gallocatechin, and EGCG [3] |
| --- | --- | --- | --- |
| O=C(O)COc1ccc(Cl)cc1Cl [2,4-D, 2,4-dichlorophenoxyacetic acid] | suppressed catechin biosynthesis |  |  |
| CC(C)[C@@H](C)[C@@H](O)[C@H](O)[C@@H](C)[C@H]1CC[C@H]2[C@@H]3COC(=O)[C@H]4C[C@H](O)[C@H](O)C[C@]4(C)[C@H]3CC[C@]12C [24-epibrassinolide] | induced catechin biosynthesis and EGCG accumulation |  |  |
| CCOC(=O)C(C)(C)Oc1ccc(Cl)cc1 [Clofibrate] |  | 89 mg/gdwt |  |
| O.O.O.O.O.O.O.O=S(=O)([O-])[O-].[Fe+2] [FeSO4.7H2O] |  | 90 mg/gdwt |  |
| O=C(O)c1cc(O)c(O)c(O)c1 [gallic acid] |  | 82 mg/gdwt |  |
| C/C(=C\CNc1ncnc2[nH]cnc12)CO [zeatin] | induced catechin biosynthesis and EGCG accumulation |  | induced catechin, gallocatechin, and EGCG |
